According to article PMC7527816, “Molecular basis for the bifunctional Uba4–Urm1 sulfur‐relay system in tRNA thiolation and ubiquitin‐like conjugation” (The EMBO Journal, 2020):
Positions count from the first letter of the chain named. Numbers in names are those of the source.

Legend:
[1] = biological target: T1, CtUba4-CtUrm1 (Thermochaetoides thermophila, UniProt G0SC54); assay: GST pull-down of CtUba4 with GST-CtUrm1 (nucleotide-stabilised complex); type: binding; settings: 1 mM nucleotide, 2 mM MgCl2, pH 6.0, 37 °C
T1 construct: gene uba4; full-length CtUba4 (1-444) plus CtUrm1, both from E. coli, tags TEV-cleaved (GST kept on CtUrm1 in pull-down); with Ubiquitin-related modifier 1

[2] = biological target: T1, CtUba4-CtUrm1; assay: pyrophosphate release (fluorometric kit); Malachite Green phosphate; type: biochemical; settings: 20 μM ATP, CtUrm1 7.5 μM, 0.5 mM MgCl2, pH 6.0, 37 °C
[3] = biological target: T2, CtUba4-CtUrm1 (Thermochaetoides thermophila, UniProt G0SC54, N307A/M308A); assay: as above; type: biochemical; settings: 20 μM ATP, CtUrm1 7.5 μM, 0.5 mM MgCl2, pH 6.0, 37 °C
T2 construct: gene uba4; full-length CtUba4 (1-444) plus CtUrm1, both from E. coli, tags TEV-cleaved (GST kept on CtUrm1 in pull-down); with Ubiquitin-related modifier 1
T2 sequence (G0SC54 entry or part of it N307A/M308A, one chain of several): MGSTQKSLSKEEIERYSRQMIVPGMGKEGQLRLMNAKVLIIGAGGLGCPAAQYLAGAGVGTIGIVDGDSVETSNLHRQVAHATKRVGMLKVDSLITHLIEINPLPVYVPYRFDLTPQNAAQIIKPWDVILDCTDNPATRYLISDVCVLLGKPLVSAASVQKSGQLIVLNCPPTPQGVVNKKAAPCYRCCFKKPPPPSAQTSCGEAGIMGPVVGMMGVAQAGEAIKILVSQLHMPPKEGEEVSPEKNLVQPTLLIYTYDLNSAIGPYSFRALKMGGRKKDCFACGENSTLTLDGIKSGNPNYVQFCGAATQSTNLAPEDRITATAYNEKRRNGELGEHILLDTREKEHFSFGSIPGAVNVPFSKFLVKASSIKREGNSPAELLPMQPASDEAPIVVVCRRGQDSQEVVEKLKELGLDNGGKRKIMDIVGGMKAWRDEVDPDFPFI

[4] = biological target: T3, ADlinker 1-321 (with CtUrm1) (Thermochaetoides thermophila, UniProt G0SC54); assay: as above; type: biochemical; settings: 20 μM ATP, CtUrm1 7.5 μM, 0.5 mM MgCl2, pH 6.0, 37 °C
T3 construct: gene uba4; adenylation domain plus complete linker, aa 1-321, E. coli; assayed with CtUrm1; with Ubiquitin-related modifier 1
T3 sequence (G0SC54 1-321): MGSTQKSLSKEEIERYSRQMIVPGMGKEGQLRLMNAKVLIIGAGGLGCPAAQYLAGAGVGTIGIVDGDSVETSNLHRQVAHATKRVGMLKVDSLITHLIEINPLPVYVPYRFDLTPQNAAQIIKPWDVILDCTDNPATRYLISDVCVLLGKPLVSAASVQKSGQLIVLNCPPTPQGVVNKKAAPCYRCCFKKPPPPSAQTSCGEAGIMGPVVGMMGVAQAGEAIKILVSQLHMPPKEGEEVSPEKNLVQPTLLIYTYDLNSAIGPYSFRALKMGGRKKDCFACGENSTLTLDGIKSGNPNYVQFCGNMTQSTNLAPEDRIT
T3 sequence (G0SE11 1-110 partner): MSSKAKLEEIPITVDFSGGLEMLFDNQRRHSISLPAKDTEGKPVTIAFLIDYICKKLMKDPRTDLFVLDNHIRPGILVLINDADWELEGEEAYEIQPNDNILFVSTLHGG

[5] = biological target: T4, CtUba4 AD (Thermochaetoides thermophila, UniProt G0SC54); assay: thermal shift assay (SYPRO Orange); type: binding; settings: 1 mM AMP, 2 mM MgCl2, 2 mM DTT, pH 7.5
T4 construct: gene uba4; adenylation domain aa 1-290, E. coli, His6-GST tag TEV-cleaved, dimer

[6] = biological target: T5, CtUba4 (full length) (Thermochaetoides thermophila, UniProt G0SC54); assay: thermal shift assay (SYPRO Orange); type: binding; settings: 1 mM AMP, 2 mM MgCl2, 2 mM DTT, pH 7.5
T5 construct: gene uba4; full length aa 1-444, codon-optimised, E. coli BL21(DE3) pRARE, His6 or His6-GST tag TEV-cleaved, homodimer

[7] = biological target: the molecule itself; assay: SEC + SEC-MALS; SEC profiles and static light scattering (RALS/LALS) after Superdex 75 10/300 GL; 1 mg/ml; 20 mM Tris pH 7.5, 150 mM NaCl, 1 mM DTT
[8] = biological target: the molecule itself; assay: crystal structure; apo full-length CtUba4, no nucleotide; 50 mM HEPES pH 6.9-7.0, PEG 4000, 21°C; 2.2 Å
[9] = biological target: the molecule itself; assay: crystal structure; CtUba4 C202K, CtUrm1 and ATP (1.00:1.25:2.25) incubated in 100 mM MES pH 6.0, 100 mM NaCl, 2 mM MgCl2 at 37°C for 30 min, complex isolated on Superdex 200 Increase; crystals in 0.1 M HEPES pH 7.5, 20% PEG 3350; 3.15 Å

Nc1ncnc2c1ncn2[C@@H]1O[C@H](COP(=O)(O)OP(=O)(O)NP(=O)(O)O)[C@@H](O)[C@H]1O [AMP-PNP]
GST pull-down of CtUba4 with GST-CtUrm1 (nucleotide-stabilised complex) [1]: complex is stabilized most efficiently in the presence of ATP and AMP‐PNP

Nc1ncnc2c1ncn2[C@@H]1O[C@H](COP(=O)(O)OP(=O)(O)OP(=O)(O)O)[C@@H](O)[C@H]1O [ATP]
pyrophosphate release (fluorometric kit); Malachite Green phosphate [2]: ATP hydrolysis capacity of CtUba4 WT and mutants in the presence of CtUrm1 | pyrophosphate release (fluorometric kit); Malachite Green phosphate [3]: mutations of the linker residues Asn307 and Met308 | pyrophosphate release (fluorometric kit); Malachite Green phosphate [4]: it stimulates the ATP hydrolysis activity of the AD in the presence of Urm1

Nc1ncnc2c1ncn2[C@@H]1O[C@H](COP(=O)(O)O)[C@@H](O)[C@H]1O [AMP]
melting temperature [5]: AMP increased the thermal stability of full‐length Uba4 and the AD alone | melting temperature [6]: AMP increased the thermal stability of full‐length Uba4 and the AD alone

B1: CtUba4 adenylation domain (1-290) (domain or fragment, Chaetomium thermophilum, UniProt G0SC54 1-290, looked up)
chain: MGSTQKSLSKEEIERYSRQMIVPGMGKEGQLRLMNAKVLIIGAGGLGCPAAQYLAGAGVGTIGIVDGDSVETSNLHRQVAHATKRVGMLKVDSLITHLIEINPLPVYVPYRFDLTPQNAAQIIKPWDVILDCTDNPATRYLISDVCVLLGKPLVSAASVQKSGQLIVLNCPPTPQGVVNKKAAPCYRCCFKKPPPPSAQTSCGEAGIMGPVVGMMGVAQAGEAIKILVSQLHMPPKEGEEVSPEKNLVQPTLLIYTYDLNSAIGPYSFRALKMGGRKKDCFACGENSTLT
notes: Uba4 of Chaetomium thermophilum, UniProt G0SC54, adenylation domain residues 1-290; source: E. coli BL21(DE3) pRARE, purified (Ni-NTA, TEV cleavage, SEC); not shown: His6, N-terminal, cleaved; GST, N-terminal, cleaved
stoichiometry N [7]: 2

B2: CtUba4 rhodanese-like domain (319-444) (domain or fragment, Chaetomium thermophilum, UniProt G0SC54 319-444, looked up)
chain: RITATAYNEKRRNGELGEHILLDTREKEHFSFGSIPGAVNVPFSKFLVKASSIKREGNSPAELLPMQPASDEAPIVVVCRRGQDSQEVVEKLKELGLDNGGKRKIMDIVGGMKAWRDEVDPDFPFI
notes: Uba4 of Chaetomium thermophilum, UniProt G0SC54, rhodanese-like domain residues 319-444; also called CtUba4 RHD; RHD; source: E. coli BL21(DE3) pRARE, purified (Ni-NTA, TEV cleavage, SEC Superdex 75); not shown: His6, N-terminal, cleaved; GST, N-terminal, cleaved
stoichiometry N [7]: 2

B3: Chaetomium thermophilum Uba4 (ubiquitin-like protein activator 4), full length, wild type (enzyme, UniProt G0SC54 1-444, looked up)
chain: MGSTQKSLSKEEIERYSRQMIVPGMGKEGQLRLMNAKVLIIGAGGLGCPAAQYLAGAGVGTIGIVDGDSVETSNLHRQVAHATKRVGMLKVDSLITHLIEINPLPVYVPYRFDLTPQNAAQIIKPWDVILDCTDNPATRYLISDVCVLLGKPLVSAASVQKSGQLIVLNCPPTPQGVVNKKAAPCYRCCFKKPPPPSAQTSCGEAGIMGPVVGMMGVAQAGEAIKILVSQLHMPPKEGEEVSPEKNLVQPTLLIYTYDLNSAIGPYSFRALKMGGRKKDCFACGENSTLTLDGIKSGNPNYVQFCGNMTQSTNLAPEDRITATAYNEKRRNGELGEHILLDTREKEHFSFGSIPGAVNVPFSKFLVKASSIKREGNSPAELLPMQPASDEAPIVVVCRRGQDSQEVVEKLKELGLDNGGKRKIMDIVGGMKAWRDEVDPDFPFI
notes: Uba4 of Chaetomium thermophilum, UniProt G0SC54, full length aa 1-444; Expressed from pETM30 (N-terminal His6 and GST) and pETM11 (N-terminal His6); tags cleaved with TEV; Codon-optimised gene; also called CtUba4; CtUba4 FL; source: E. coli BL21(DE3) pRARE, purified (Ni-NTA, TEV cleavage, second Ni-NTA, SEC Superdex 200); not shown: His6, N-terminal, cleaved
stoichiometry N [8]: 2

B4: CtUba4 C202K, full length (enzyme, Chaetomium thermophilum, UniProt G0SC54 1-444, looked up)
chain: B3 chain with C202K
notes: Uba4 of Chaetomium thermophilum, UniProt G0SC54, full length aa 1-444 with C202K; With Urm1 and ATP the epsilon-amino group of Lys202 forms a non-hydrolysable iso-peptide bond with Gly111 of Urm1; The RHD is present in the crystals but has no density; source: E. coli BL21(DE3) pRARE, purified (Ni-NTA, TEV cleavage, SEC Superdex 200); not shown: His6, N-terminal, cleaved
stoichiometry N [9]: 2
